“Also recorded” adds a separate entry of the source. Where two headings read alike, the source gives them in different places.
What was measured:
[1] = system: extracellular dopamine in the nucleus accumbens; assay: Microdialysis: Topiramate on cocaine-induced increases in nucleus accumbens dopamine; type: in vivo, rats; details: Topiramate 40 mg/kg i.p. 60 minutes prior to cocaine challenge
Experimental: In this example, we examined the effects of Topiramate sixty minutes prior to a cocaine challenge. The Topiramate was administered as an intraperitoneal injection, of 40 mg/kg, 60 minutes prior to a cocaine challenge.

[2] = system: extracellular dopamine in the nucleus accumbens; assay: Microdialysis: Topiramate on nicotine-induced increases in nucleus accumbens dopamine (Example 14); type: in vivo, rats; details: Rattus norvegicus, ip, 60 mins pretreatment
Experimental: These studies were performed using the identical experimental technique we have successfully used in more than 5000 microdialysis studies in rats. Adult male Sprague-Dawley rats (200-300 g, Taconic Farms) were anesthetized with ketamine HCl/xylazine (100 mg/kg), and siliconized guide cannulae are stereotactically implanted in the NACC (1.5 mm anterior to bregma, 1 mm lateral to bregma, and 5.6 mm ventral from the cortical surface, Paxinos and Watson, 2nd edition, 1986) two days prior to the microdialysis experiment.
On the day of the microdialysis study, rats are placed in a bowl at least 2 hrs prior to fraction collection. […]
Ten minute samples are collected within the injection loop (50 μl), injected online and analyzed until three sequential injections differ by less than 10 percent. […]
As stated previously, the first three data points that differ by less than 10% are used as the basal levels, and subsequent measurements made following a challenge drug are converted to a percentage of these values. All subsequent analyses are determined using the ‘percentage of basal’ values.
Locomotor activity was monitored throughout the entire period of study using an Optical Animal Activity Monitor (Bioanalytical Systems, West Lafayette, Ind.), which uses an optical sensor and records activity on both a chart recorder and via computer. […]

Sprague-Dawley rats = assay: Gross locomotor activity (Optical Animal Activity Monitor); type: in vivo; details: for nicotine-induced increases in gross locomotor activity: topiramate 25 and 50 mg/kg
Text: Locomotor activity was monitored throughout the entire period of study using an Optical Animal Activity Monitor (Bioanalytical Systems, West Lafayette, Ind.), which uses an optical sensor and records activity on both a chart recorder and via computer.
Locomotor data was collected with the Optical Animal Activity Monitor (OAAM, BAS, West Lafayette, Ind.). This system is attached to the microdialysis “Raturn®” machines and measures locomotor activity through an optical sensor attached directly to the animal. Output from the Raturn® gives a direct index of locomotor activity.

[3] = system: mesolimbic extracellular dopamine (DA), NAcc; assay: Microdialysis Example 15: extracellular dopamine after nicotine; type: in vivo
Experimental: (§1) Briefly, two days prior to the microdialysis experiments, siliconized guide cannulae were implanted targeting the NAcc (A=+1.5 mm, L=−1.0 mm, V=−5.6 mm). […] Dialysate samples were assayed for monoamine content by microbore high-pressure liquid chromatography (HPLC) coupled with electrochemical detection. […] Peak effects were analyzed with a one-way ANOVA, and post-hoc Bonferroni t-test of topiramate pretreated groups compared to saline pretreated controls provided ANOVA significance at a critical value of 0.05.

norepinephrine (NE) = assay: Microdialysis Example 15: extracellular norepinephrine after nicotine; type: in vivo
Experimental: as §1

serotonin (5-HT) = assay: Microdialysis Example 15: extracellular serotonin after nicotine; type: in vivo
Experimental: as §1

[4] = system: synaptic DA ([11C]-raclopride binding, corpus striatum); assay: Primate PET: [11C]-raclopride DV ratio after cocaine challenge; type: in vivo, baboons (Papio anubis); details: Group 2: cocaine hydrochloride 0.5, 1.0 or 2.0 mg/kg, 5 or 30 minutes prior to second [11C]-raclopride injection
Experimental: Arterial blood samples were obtained throughout the study and selected plasma samples were analyzed for the presence of unchanged radio tracer carbon-11. Animals were not removed from the gantry between isotope injections. Regions of interest (ROI's) were drawn directly on the PET images. Briefly, the corpus striatum was outlined, bilaterally, on every transaxial slice upon which it appeared. The cerebellar ROI was drawn across the midline at the level of the cerebellar vermis. ROI's from the first study were then copied directly onto the corresponding slice from the second. By examining placement of the ROI's on the second scan changes could be made, if necessary, in ROI position only. This multi planar method of analysis reduced differences that may arise due to movement of the animal within the gantry during the scanning interval.
A graphical method for determining the distribution volume (DV) was developed previously for the kinetic analysis of the [^11C]-raclopride data. The DV ratio was the most reproducible measure of raclopride uptake. The ratio is the DV from a receptor-rich region (corpus striatum) to the DV of a non-receptor region (cerebellum). The free receptor concentration was directly proportional to the DV ratio of 1. […]

male Sprague-Dawley rats = type: in vivo
Text: In all rodent studies, male Sprague-Dawley rats were used (200-225 g, Taconic farms, Germantown, N.Y.). Animals were allowed to acclimate to the animal housing facility for at least 5 days prior to beginning the experiments. […] The conditioning procedure for the acquisition phase consisted of 12 sessions carried out consecutively over 12 days.
The animals in each group were randomly assigned to a 2×2 factorial design with one factor being the pairing chamber and the other factor being the order of conditioning. The animals that received either saline or cocaine were injected and confined to the appropriate compartment for 30 minutes.
[…] The amount of time spent in each chamber was recorded using an automated infrared beam electronically coupled to a timer.
In this example the procedure outlined in Section 2 of Materials and Methods was followed.

freely moving rats = assay: Cocaine-induced stereotypy after a sensitizing regimen of cocaine; type: in vivo
Experimental: The phenomenon of sensitization is observed with virtually all drugs of addiction. Sensitization is believed to play a role in the etiology of addiction.
Animals received 15 mg/kg i.p. of cocaine and stereotypy was determined in standard locomotor cages. For 6 consecutive days, animals received 15 mg/kg i.p. of cocaine once a day in their home cages. Eight days later, animals were rechallenged with 15 mg/kg i.p. of cocaine and stereotypy was determined. A five point rating scale was used to assess stereotypy and the rater was blind to the treatment received by each animal.

NAc DA = assay: Microdialysis: cocaine/heroin (speedball) induced increases in NAc DA; type: in vivo, rats; details: cocaine 20 mg/kg i.p. or heroin 0.5 mg/kg i.p. alone
Experimental: In vivo microdialysis studies were performed using adult male Sprague-Dawley rats (Taconic Farms) as detailed previously (Morgan and Dewey, 1998). Cocaine, a dopamine reuptake inhibitor, (n=6-8) was administered (i.p.) at a dose of 20 mg/kg while heroin, an indirect dopamine releaser, (n=6-8) was administered (i.p.) at a dose of 0.5 mg/kg. In studies designed to investigate the synergistic effects of a cocaine/heroin combination (n=6-8), both drugs were administered at the identical dose used in the single drug studies. Alone cocaine produced a marked elevation in extracellular DA of approximately 380% above baseline values, 60 minutes following administration. DA returned to baseline within 120 minutes. In contrast, heroin increased NAc DA by only 70%, 60 minutes following administration, returning to baseline within 140 minutes. However, when combined, the two drugs produced an increase in NAc DA of approximately 1000%, 180 minutes following administration that had not returned to baseline values by 200 minutes after reaching peak values (FIG. 9).

[5] = system: extracellular DA levels in the NACC; assay: Microdialysis: cocaine-induced increases in extracellular DA, earlier studies
[6] = acquisition, Saline/Cocaine pairing, cocaine 20 mg/kg (Table IV)
[7] = acquisition, Saline/Cocaine pairing, cocaine 20 mg/kg (Table V)
[8] = acquisition, Saline/Cocaine pairing, cocaine 20 mg/kg (Table VI)
[9] = expression, Saline/Cocaine pairings, saline on test day (Table IX)
[10] = expression, Saline/Cocaine pairings, saline on test day (Table VII)
[11] = expression, Saline/Cocaine pairings, saline on test day (Table VIII)
[12] = expression, Saline/Cocaine pairings, saline on test day (Table X)

CC1(C)O[C@@H]2[C@@H](CO[C@@]3(COS(N)(=O)=O)OC(C)(C)O[C@@H]23)O1 [Topiramate]
attenuation of cocaine-induced increases in extracellular dopamine [1]: approximately 15%
inhibition at 25 mg/kg ([2]; topiramate 25 mg/kg ip): ~50%
inhibition at 50 mg/kg ([2]; topiramate 50 mg/kg ip): ~70%
gross locomotor activity, topiramate alone (Sprague-Dawley rats; 25 and 50 mg/kg): did not alter gross locomotor activity; also recorded: did not attenuate gross locomotor activity
nicotine-induced increases in gross locomotor activity (Sprague-Dawley rats): significantly attenuate
nicotine-induced increases in gross locomotor activity (Sprague-Dawley rats; listed as topiramate): markedly attenuated
reduction of the NAcc DA response to acute nicotine ([3]; topiramate 25 mg/kg): 67%
reduction of the NAcc DA response to acute nicotine ([3]; topiramate 50 mg/kg): 83%
neurochemical sensitization (nicotine-induced NAcc DA release) ([3]; topiramate 75 mg/kg, animals pretreated with nicotine for 14 days): dramatically reduced
extracellular basal DA concentrations ([3]; topiramate alone): did not produce any significant changes
inhibition at 25 mg/kg (norepinephrine (NE); topiramate 25 mg/kg, read-out: inhibition of nicotine-induced increases in NE activity): 53%
inhibition at 50 mg/kg (norepinephrine (NE); topiramate 50 mg/kg, read-out: inhibition of nicotine-induced increases in NE activity): 60%
extracellular basal NE concentrations (norepinephrine (NE); topiramate alone): did not produce any significant changes
inhibition of nicotine-induced increases in 5-HT activity (serotonin (5-HT); topiramate 25 or 50 mg/kg): not
increase in basal 5-HT activity (serotonin (5-HT); topiramate alone, non-significant): 20%

COC(=O)[C@H]1[C@@H](OC(=O)c2ccccc2)C[C@@H]2CC[C@H]1N2C [Cocaine]
reduction in the mean DV ratio [4]: greater than 30%
Time spent in chambers, Unpaired (male Sprague-Dawley rats; acquisition, Saline/Cocaine pairing, cocaine 20 mg/kg (Table III)): 3.9 ± 0.4 min
Time spent in chambers, Paired (male Sprague-Dawley rats; acquisition, Saline/Cocaine pairing, cocaine 20 mg/kg (Table III, 75 mg/kg GVG experiment)): 11.1 ± 0.3^4 min
Time spent in chambers, Paired (male Sprague-Dawley rats; [6]): 11.8 ± 0.5^4 mins
Time spent in chambers, Unpaired (male Sprague-Dawley rats; [6]): 3.2 ± 0.5 min
Time spent in chambers, Paired (male Sprague-Dawley rats; [7]): 11.6 ± 0.5^4 min
Time spent in chambers, Unpaired (male Sprague-Dawley rats; [7]): 3.4 ± 0.4^5 min
Time spent in chambers, Paired (male Sprague-Dawley rats; [8]): 11.2 ± 0.6^4 mins
Time spent in chambers, Unpaired (male Sprague-Dawley rats; [8]): .8 ± 0.5^5 mins
Time spent in chambers, Paired (male Sprague-Dawley rats; cocaine 5.0 mg/kg i.p.): 8.2 ± 0.4 min
Time spent in chambers, Unpaired (male Sprague-Dawley rats; cocaine 5.0 mg/kg i.p.): 6.8 ± 0.5 min
Time spent in chambers, Paired (male Sprague-Dawley rats; cocaine 10.0 mg/kg i.p.): 9.6 ± 0.5^2 mins
Time spent in chambers, Unpaired (male Sprague-Dawley rats; cocaine 10.0 mg/kg i.p.): 5.4 ± 0.3 min
Time spent in chambers, Paired (male Sprague-Dawley rats; cocaine 20.0 mg/kg i.p.): 11.8 ± 0.4^3 mins
Time spent in chambers, Unpaired (male Sprague-Dawley rats; cocaine 20.0 mg/kg i.p.): 3.2 ± 0.4^4 mins
Time spent in chambers, Paired (male Sprague-Dawley rats; [9]): 11.1 ± 0.5^3 min
Time spent in chambers, Unpaired (male Sprague-Dawley rats; [9]): 3.9 ± 0.4^4 min
Time spent in chambers, Paired (male Sprague-Dawley rats; [10]): 11.8 ± 0.5^3 min
Time spent in chambers, Unpaired (male Sprague-Dawley rats; [10]): 3.2 ± 0.5 min
Time spent in chambers, Paired (male Sprague-Dawley rats; [11]): 12.2 ± 0.6^3 min
Time spent in chambers, Unpaired (male Sprague-Dawley rats; [11]): 2.8 ± 0.5 min
Time spent in chambers, Paired (male Sprague-Dawley rats; [12]): 12.5 ± 0.8^3 min
Time spent in chambers, Unpaired (male Sprague-Dawley rats; [12]): 2.5 ± 0.6^4 min
Stereotypies on Day 15 (freely moving rats; cocaine 15 mg/kg i.p. rechallenge after sensitizing regimen, 1 ml/kg i.p. 0.9% NaCl before): 4.1 ± 0.5
Stereotypy score on Day 1 (freely moving rats; cocaine 15 mg/kg i.p., group later given 0.9% NaCl, five point rating scale): 2.5 ± 0.4
time for DA to return to baseline (NAc DA): ≤ 120 min
increase of NACC DA levels (rank order) [5]: 450%

Reference: patent US6890951B2, “Treatment of addiction and addiction-related behavior” (Brookhaven Science Associates LLC, priority 1998, dated 2005)
